Data set [1] concerns brain metastases. The data set is described as follows: MRI signal enhancement in brain metastases, Nano-Rad phase I-b trial. The note with it: D0, 15 min after i.v. Dotarem 0.2 mL/kg (0.1 mmol/kg); metastases >1 cm; mean ±SD. It is filed as in vivo, human. From the text:
This study is part of a prospective dose escalation phase I-b clinical trial to evaluate the tolerance of the intravenous administration of radiosensitizing AGuIX nanoparticles in combination with whole brain radiotherapy for the treatment of brain metastases. The Nano-Rad trial (Radiosensitization of Multiple Brain Metastases Using AGuIX Gadolinium Based Nanoparticles) was registered as NCT02820454. Here, we report the findings of the MRI protocol applied to the 15 recruited patients. The objectives assigned to this MRI ancillary study were to i) assess the distribution of AGuIX nanoparticles in brain metastases and surrounding healthy tissues and ii) to measure the T1-weighted contrast enhancement and nanoparticle concentration in brain metastases and surrounding healthy tissues after intravenous administration of AGuIX nanoparticles (Verry C, et al. BMJ Open. 9:e023591 (2019)).
Patients with multiple brain metastases ineligible for local treatment by surgery or stereotactic radiation were recruited. […]

For data set [2] the following is noted: magnetic field of 3 Tesla; reference cited; cited from earlier work.

These results are taken from patent US20220249711A1, “METHODS FOR TREATING TUMORS” (CENTRE HOSPITALIER UNIVERSITAIRE DE GRENOBLE, priority 2019, published 2022).

For the compound `CNC[C@H](O)[C@@H](O)[C@H](O)[C@H](O)CO.O=C([O-])CN1CCN(CC(=O)[O-])CCN(CC(=O)O)CCN(CC(=O)[O-])CC1.[Gd+3]` [Dotarem, gadoterate meglumine], the “MRI enhancement averaged over all measurable metastases” value in data set [1] is 182.9±116.2%. Moreover, the “r1 per Gd^3+ ion” value in data set [2] is 3.5 mM⁻¹ s⁻¹.
